Assay results from patent US20100316989A1, “METHOD FOR SCREENING AN […] OF HBV PROLIFERATION BY USING THE INTERACTION BETWEEN HBV CAPSID AND SURFACE PROTEINS BASED ON CELLULAR IMAGING” (KOREA INSTITUTE OF SCIENCE AND TECHNOLOGY, priority 2007, published 2010).

Tests used:
[1] = test system: interaction between PreS and capsid protein (PreS-PH / Capsid-GFP) in HEK293T cells; format: cell-based; details: 50 μM peptide; transfected HEK293T cells; FIG. 6
[2] = target: interaction between capsid protein and PreS protein (Hepatitis B virus genotype D subtype ayw, UniProt P03146, F97I/I116L/INS152DR/S87N/V74N); details: serially diluted peptide; Trx-PreS fixed on plate, purified capsid protein; FIG. 5

For “RQPTPISPPLRDSHPQAMQWNS (deleted L4b peptide) [PreS derived peptide]”, the “location of GFP fluorescence image of Capsid-GFP fusion protein (inhibition of interaction)” value [1] was “located not in cell membrane but in cytoplasm of cells” and the “inhibition of the interaction between capsid protein and PreS protein (OD490)” value [2] was “inhibited the interaction between capsid protein and PreS protein dose-dependently”.
